# Assay results from ChEMBL document CHEMBL1145069, “Stereospecific synthesis of 5-substituted 2-bisarylthiocyclopentane carboxylic acids as specific matrix metalloproteinase inhibitors” (J Med Chem, 2003).
# Target: Matrix metalloproteinase-9 (Homo sapiens, UniProt P14780)
# Experiment: Inhibitory activity against matrix metalloprotease-9 (MMP9)
# Chain of Matrix metalloproteinase-9 (P14780 whole entry): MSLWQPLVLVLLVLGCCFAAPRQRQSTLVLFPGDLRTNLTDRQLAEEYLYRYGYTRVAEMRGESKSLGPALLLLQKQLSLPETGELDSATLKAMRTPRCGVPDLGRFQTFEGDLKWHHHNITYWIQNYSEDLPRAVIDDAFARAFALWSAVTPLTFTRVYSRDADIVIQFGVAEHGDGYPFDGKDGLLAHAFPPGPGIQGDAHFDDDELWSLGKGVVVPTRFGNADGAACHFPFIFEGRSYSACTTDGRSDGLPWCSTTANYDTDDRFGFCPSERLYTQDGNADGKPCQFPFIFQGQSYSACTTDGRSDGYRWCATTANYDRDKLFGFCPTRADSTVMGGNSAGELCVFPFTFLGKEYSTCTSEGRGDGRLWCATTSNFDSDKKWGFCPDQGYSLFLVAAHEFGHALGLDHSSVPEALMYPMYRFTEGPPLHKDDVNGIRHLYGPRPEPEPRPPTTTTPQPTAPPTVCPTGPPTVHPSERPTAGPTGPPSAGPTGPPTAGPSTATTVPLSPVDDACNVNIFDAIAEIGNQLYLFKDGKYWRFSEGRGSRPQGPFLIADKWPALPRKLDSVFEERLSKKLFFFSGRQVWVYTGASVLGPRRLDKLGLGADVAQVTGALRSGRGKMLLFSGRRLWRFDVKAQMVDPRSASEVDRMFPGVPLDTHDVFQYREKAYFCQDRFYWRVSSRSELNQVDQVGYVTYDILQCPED
row,Structure (SMILES),IC50
1,O=C(O)[C@H]1[C@H](CN2C(=O)c3ccccc3C2=O)CC[C@@H]1SCc1ccc(-c2ccccc2)cc1,3800 nM
2,O=C(O)[C@H]1[C@H](Cn2nnc3ccccc3c2=O)CC[C@@H]1Sc1ccc(-c2nc3ccccc3s2)cc1,661 nM
3,O=C(O)[C@H]1[C@H](Cn2nnc3ccccc3c2=O)CC[C@@H]1Sc1ccc(-c2nccs2)cc1,> 6000 nM
4,O=C(O)[C@H]1[C@H](Cn2nnc3ccccc3c2=O)CC[C@@H]1Sc1ccc(-c2ccncc2)cc1,341 nM
5,O=C(O)[C@H]1[C@H](CN2C(=O)c3ccccc3S2(=O)=O)CC[C@@H]1Sc1ccc(-c2ccc(Cl)cc2)cc1,35 nM
6,CC1(C)NC(=O)N(C[C@@H]2CC[C@H](Sc3ccc(-c4ccc(Cl)cc4)cc3)[C@H]2C(=O)O)C1=O,3300 nM
7,O=C(O)[C@H]1[C@H](CN2C(=O)c3ccccc3C2=O)CC[C@@H]1SCCc1ccc(-c2ccccc2)cc1,12 nM

# Target: T1, Interstitial collagenase (Homo sapiens, UniProt P03956)
# T1 sequence (P03956 whole entry): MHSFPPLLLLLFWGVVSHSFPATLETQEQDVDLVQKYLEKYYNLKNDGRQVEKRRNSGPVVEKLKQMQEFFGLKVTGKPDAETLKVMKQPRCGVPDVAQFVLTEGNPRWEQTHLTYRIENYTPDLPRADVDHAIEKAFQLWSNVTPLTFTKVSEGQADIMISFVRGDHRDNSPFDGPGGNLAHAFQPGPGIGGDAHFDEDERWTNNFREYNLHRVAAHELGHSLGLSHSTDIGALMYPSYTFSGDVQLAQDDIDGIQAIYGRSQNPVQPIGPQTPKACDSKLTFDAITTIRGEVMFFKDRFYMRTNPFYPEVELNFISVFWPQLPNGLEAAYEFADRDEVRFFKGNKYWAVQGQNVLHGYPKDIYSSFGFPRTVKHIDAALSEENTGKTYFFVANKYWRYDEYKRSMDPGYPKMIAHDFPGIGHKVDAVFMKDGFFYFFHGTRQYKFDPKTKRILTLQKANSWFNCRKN
# Experiment: Inhibitory activity against matrix metalloprotease-1 (MMP1)
row,Structure (SMILES),IC50
1,O=C(O)[C@H]1[C@H](CN2C(=O)c3ccccc3C2=O)CC[C@@H]1SCc1ccc(-c2ccccc2)cc1,> 100000 nM
2,O=C(O)[C@H]1[C@H](Cn2nnc3ccccc3c2=O)CC[C@@H]1Sc1ccc(-c2nc3ccccc3s2)cc1,> 1000 nM
3,O=C(O)[C@H]1[C@H](Cn2nnc3ccccc3c2=O)CC[C@@H]1Sc1ccc(-c2nccs2)cc1,> 100000 nM
4,O=C(O)[C@H]1[C@H](Cn2nnc3ccccc3c2=O)CC[C@@H]1Sc1ccc(-c2ccncc2)cc1,> 36000 nM
5,O=C(O)[C@H]1[C@H](CN2C(=O)c3ccccc3S2(=O)=O)CC[C@@H]1Sc1ccc(-c2ccc(Cl)cc2)cc1,2100 nM
6,CC1(C)NC(=O)N(C[C@@H]2CC[C@H](Sc3ccc(-c4ccc(Cl)cc4)cc3)[C@H]2C(=O)O)C1=O,70000 nM
7,O=C(O)[C@H]1[C@H](CN2C(=O)c3ccccc3C2=O)CC[C@@H]1SCCc1ccc(-c2ccccc2)cc1,45000 nM

# Target: 72 kDa type IV collagenase (Homo sapiens, UniProt P08253)
# Sequence (P08253 whole entry): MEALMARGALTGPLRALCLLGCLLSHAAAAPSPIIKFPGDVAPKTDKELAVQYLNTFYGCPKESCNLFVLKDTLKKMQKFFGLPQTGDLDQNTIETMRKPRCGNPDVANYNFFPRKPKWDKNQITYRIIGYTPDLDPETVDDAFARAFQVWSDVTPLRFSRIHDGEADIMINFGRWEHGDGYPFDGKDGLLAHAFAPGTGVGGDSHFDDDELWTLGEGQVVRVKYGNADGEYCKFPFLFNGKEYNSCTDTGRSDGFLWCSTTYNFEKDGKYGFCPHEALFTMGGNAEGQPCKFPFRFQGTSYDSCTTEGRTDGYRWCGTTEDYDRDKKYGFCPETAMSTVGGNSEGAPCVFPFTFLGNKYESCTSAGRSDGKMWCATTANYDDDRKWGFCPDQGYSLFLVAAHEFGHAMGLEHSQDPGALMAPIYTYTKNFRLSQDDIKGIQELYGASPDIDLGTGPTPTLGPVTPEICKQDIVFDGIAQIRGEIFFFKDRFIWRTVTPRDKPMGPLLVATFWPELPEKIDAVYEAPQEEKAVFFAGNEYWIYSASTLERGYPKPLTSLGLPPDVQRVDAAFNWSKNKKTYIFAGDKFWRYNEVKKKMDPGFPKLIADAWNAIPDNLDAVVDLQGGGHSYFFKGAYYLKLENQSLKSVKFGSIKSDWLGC
# Experiment: Inhibitory activity against matrix metalloprotease-2 (MMP2)
row,Structure (SMILES),IC50
1,O=C(O)[C@H]1[C@H](CN2C(=O)c3ccccc3C2=O)CC[C@@H]1SCc1ccc(-c2ccccc2)cc1,2800 nM
2,O=C(O)[C@H]1[C@H](Cn2nnc3ccccc3c2=O)CC[C@@H]1Sc1ccc(-c2nc3ccccc3s2)cc1,829 nM
3,O=C(O)[C@H]1[C@H](Cn2nnc3ccccc3c2=O)CC[C@@H]1Sc1ccc(-c2nccs2)cc1,> 8000 nM
4,O=C(O)[C@H]1[C@H](Cn2nnc3ccccc3c2=O)CC[C@@H]1Sc1ccc(-c2ccncc2)cc1,176 nM
5,O=C(O)[C@H]1[C@H](CN2C(=O)c3ccccc3S2(=O)=O)CC[C@@H]1Sc1ccc(-c2ccc(Cl)cc2)cc1,13 nM
6,CC1(C)NC(=O)N(C[C@@H]2CC[C@H](Sc3ccc(-c4ccc(Cl)cc4)cc3)[C@H]2C(=O)O)C1=O,572 nM
7,O=C(O)[C@H]1[C@H](CN2C(=O)c3ccccc3C2=O)CC[C@@H]1SCCc1ccc(-c2ccccc2)cc1,46 nM

# Target: Collagenase 3 (Homo sapiens, UniProt P45452)
# Experiment: Inhibitory activity against matrix metalloprotease-13 (MMP13)
row,Structure (SMILES),IC50
1,O=C(O)[C@H]1[C@H](CN2C(=O)c3ccccc3C2=O)CC[C@@H]1SCc1ccc(-c2ccccc2)cc1,15 nM
2,O=C(O)[C@H]1[C@H](Cn2nnc3ccccc3c2=O)CC[C@@H]1Sc1ccc(-c2nc3ccccc3s2)cc1,417 nM
3,O=C(O)[C@H]1[C@H](Cn2nnc3ccccc3c2=O)CC[C@@H]1Sc1ccc(-c2nccs2)cc1,> 100000 nM
4,O=C(O)[C@H]1[C@H](Cn2nnc3ccccc3c2=O)CC[C@@H]1Sc1ccc(-c2ccncc2)cc1,275 nM
5,O=C(O)[C@H]1[C@H](CN2C(=O)c3ccccc3S2(=O)=O)CC[C@@H]1Sc1ccc(-c2ccc(Cl)cc2)cc1,80 nM
6,CC1(C)NC(=O)N(C[C@@H]2CC[C@H](Sc3ccc(-c4ccc(Cl)cc4)cc3)[C@H]2C(=O)O)C1=O,3.1 nM
7,O=C(O)[C@H]1[C@H](CN2C(=O)c3ccccc3C2=O)CC[C@@H]1SCCc1ccc(-c2ccccc2)cc1,162 nM

# Target: Stromelysin-1 (Homo sapiens, UniProt P08254)
# Sequence (P08254 whole entry): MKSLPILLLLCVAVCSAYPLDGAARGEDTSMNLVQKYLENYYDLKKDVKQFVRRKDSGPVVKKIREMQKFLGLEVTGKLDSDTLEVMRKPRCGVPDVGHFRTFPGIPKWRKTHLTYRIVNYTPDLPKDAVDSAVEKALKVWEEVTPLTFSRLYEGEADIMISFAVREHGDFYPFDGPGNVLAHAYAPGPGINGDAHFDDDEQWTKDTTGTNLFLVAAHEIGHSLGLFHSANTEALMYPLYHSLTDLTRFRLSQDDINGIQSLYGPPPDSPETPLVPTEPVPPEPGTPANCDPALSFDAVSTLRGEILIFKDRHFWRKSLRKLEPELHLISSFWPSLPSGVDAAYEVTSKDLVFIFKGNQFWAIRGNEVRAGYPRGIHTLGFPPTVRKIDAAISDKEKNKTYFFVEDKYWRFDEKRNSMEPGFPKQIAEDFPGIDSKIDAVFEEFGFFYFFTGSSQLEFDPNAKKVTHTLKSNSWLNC
# Experiment: Inhibitory activity against matrix metalloprotease-3 (MMP3)
row,Structure (SMILES),IC50
1,O=C(O)[C@H]1[C@H](CN2C(=O)c3ccccc3C2=O)CC[C@@H]1SCc1ccc(-c2ccccc2)cc1,3000 nM
2,O=C(O)[C@H]1[C@H](Cn2nnc3ccccc3c2=O)CC[C@@H]1Sc1ccc(-c2nc3ccccc3s2)cc1,8000 nM
3,O=C(O)[C@H]1[C@H](Cn2nnc3ccccc3c2=O)CC[C@@H]1Sc1ccc(-c2nccs2)cc1,> 100000 nM
4,O=C(O)[C@H]1[C@H](Cn2nnc3ccccc3c2=O)CC[C@@H]1Sc1ccc(-c2ccncc2)cc1,1200 nM
5,O=C(O)[C@H]1[C@H](CN2C(=O)c3ccccc3S2(=O)=O)CC[C@@H]1Sc1ccc(-c2ccc(Cl)cc2)cc1,474 nM
6,CC1(C)NC(=O)N(C[C@@H]2CC[C@H](Sc3ccc(-c4ccc(Cl)cc4)cc3)[C@H]2C(=O)O)C1=O,9400 nM
7,O=C(O)[C@H]1[C@H](CN2C(=O)c3ccccc3C2=O)CC[C@@H]1SCCc1ccc(-c2ccccc2)cc1,26 nM
